Reference: PubChem BioAssay (NCI)
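Cells were grown in 96-well plates and exposed to each compound for 48 hours at five concentrations; endpoints were interpolated linearly between bracketing concentrations, or set to the highest concentration if not reached. Here, GI50 denotes the concentration required for 50% inhibition of growth. TGI is the concentration that stops growth completely.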

What was measured:
Experiment in all cases: NCI tumour cell line growth inhibition, 48 h
MOLT-4 leukemia = system: MOLT-4 leukemia
OVCAR-8 ovarian = system: OVCAR-8 ovarian
MALME-3M melanoma = system: MALME-3M melanoma
SF-539 CNS = system: SF-539 CNS
MDA-MB-231 breast = system: MDA-MB-231 breast
A549 NSCLC = system: A549 NSCLC
UACC-62 melanoma = system: UACC-62 melanoma
HCT-116 colon = system: HCT-116 colon
SNB-75 CNS = system: SNB-75 CNS
HL-60(TB) leukemia = system: HL-60(TB) leukemia
K-562 leukemia = system: K-562 leukemia
RPMI-8226 leukemia = system: RPMI-8226 leukemia
SK-MEL-28 melanoma = system: SK-MEL-28 melanoma
UO-31 renal = system: UO-31 renal
SNB-19 CNS = system: SNB-19 CNS
TK-10 renal = system: TK-10 renal
786-0 renal = system: 786-0 renal
M14 melanoma = system: M14 melanoma
COLO 205 colon = system: COLO 205 colon
OVCAR-4 ovarian = system: OVCAR-4 ovarian
SK-OV-3 ovarian = system: SK-OV-3 ovarian
NCI-H522 lung = system: NCI-H522 lung
MDA-MB-435 = system: MDA-MB-435
SF-295 CNS = system: SF-295 CNS
NCI-H23 lung = system: NCI-H23 lung
CAKI-1 renal = system: CAKI-1 renal
RXF 393 renal = system: RXF 393 renal
KM12 colon = system: KM12 colon
HT29 colon = system: HT29 colon
BT-549 breast = system: BT-549 breast
CCRF-CEM leukemia = system: CCRF-CEM leukemia
SR leukemia = system: SR leukemia
MCF7 breast = system: MCF7 breast
OVCAR-5 ovarian = system: OVCAR-5 ovarian
HOP-62 NSCLC = system: HOP-62 NSCLC
OVCAR-3 ovarian = system: OVCAR-3 ovarian
T-47D breast = system: T-47D breast
PC-3 prostate = system: PC-3 prostate
DU-145 prostate = system: DU-145 prostate
HCT-15 colon = system: HCT-15 colon
SK-MEL-5 melanoma = system: SK-MEL-5 melanoma
U251 CNS = system: U251 CNS
IGROV1 ovarian = system: IGROV1 ovarian
UACC-257 melanoma = system: UACC-257 melanoma
NCI-H226 lung = system: NCI-H226 lung
NCI/ADR-RES ovarian = system: NCI/ADR-RES ovarian
ACHN renal = system: ACHN renal
HCC-2998 colon = system: HCC-2998 colon
SW-620 colon = system: SW-620 colon
A498 renal = system: A498 renal
HS 578T breast = system: HS 578T breast
SF-268 CNS = system: SF-268 CNS
SN12C renal = system: SN12C renal
NCI-H460 lung = system: NCI-H460 lung

Q: What does the source list for `COc1ccc(C(=O)c2sc3nc4c(cc3c2N)CCCC4)cc1OC`?
A: GI50 (MOLT-4 leukemia): 2.62 µM; TGI (MOLT-4 leukemia): 6.49 µM; GI50 (OVCAR-8 ovarian): 2.83 µM; TGI (OVCAR-8 ovarian): 9.88 µM; GI50 (MALME-3M melanoma): 2.71 µM; TGI (MALME-3M melanoma): 14.8 µM; GI50 (SF-539 CNS): 3.83 µM; TGI (SF-539 CNS): 25.7 µM; GI50 (MDA-MB-231 breast): 3.74 µM; TGI (MDA-MB-231 breast): 8.72 µM; GI50 (A549 NSCLC): 3.28 µM; TGI (A549 NSCLC): 12.9 µM; GI50 (UACC-62 melanoma): 1.99 µM; TGI (UACC-62 melanoma): 6.8 µM; GI50 (HCT-116 colon): 3.78 µM; TGI (HCT-116 colon): 50.2 µM; GI50 (SNB-75 CNS): 2.79 µM; TGI (SNB-75 CNS): 9.93 µM; GI50 (HL-60(TB) leukemia): 2.8 µM; TGI (HL-60(TB) leukemia): 7.62 µM; GI50 (K-562 leukemia): 0.946 µM; TGI (K-562 leukemia): 40.6 µM; GI50 (RPMI-8226 leukemia): 2.31 µM; TGI (RPMI-8226 leukemia): 8.01 µM; GI50 (SK-MEL-28 melanoma): 2.95 µM; TGI (SK-MEL-28 melanoma): 14.8 µM; GI50 (UO-31 renal): 3.04 µM; TGI (UO-31 renal): 13.8 µM; GI50 (SNB-19 CNS): 7.06 µM; TGI (SNB-19 CNS): > 100 µM; GI50 (TK-10 renal): 4.77 µM; TGI (TK-10 renal): 26.5 µM; GI50 (786-0 renal): 4.01 µM; TGI (786-0 renal): 17 µM; GI50 (M14 melanoma): 2.83 µM; TGI (M14 melanoma): 11.5 µM; GI50 (COLO 205 colon): 3.33 µM; TGI (COLO 205 colon): 10.1 µM; GI50 (OVCAR-4 ovarian): 3.48 µM; TGI (OVCAR-4 ovarian): 18.6 µM; GI50 (SK-OV-3 ovarian): 10 µM; TGI (SK-OV-3 ovarian): 47.6 µM; GI50 (NCI-H522 lung): 1.52 µM; TGI (NCI-H522 lung): 5.53 µM; GI50 (MDA-MB-435): 0.723 µM; TGI (MDA-MB-435): 5.76 µM; GI50 (SF-295 CNS): 3.06 µM; TGI (SF-295 CNS): 13.5 µM; GI50 (NCI-H23 lung): 2.64 µM; TGI (NCI-H23 lung): 9.94 µM; GI50 (CAKI-1 renal): 2.83 µM; TGI (CAKI-1 renal): 13 µM; GI50 (RXF 393 renal): 3.41 µM; TGI (RXF 393 renal): 24.2 µM; GI50 (KM12 colon): 2.43 µM; TGI (KM12 colon): 15.5 µM; GI50 (HT29 colon): 3.08 µM; TGI (HT29 colon): 15.9 µM; GI50 (BT-549 breast): 2.68 µM; TGI (BT-549 breast): 8.25 µM; GI50 (CCRF-CEM leukemia): 2.95 µM; TGI (CCRF-CEM leukemia): 12.3 µM; GI50 (SR leukemia): 1.59 µM; TGI (SR leukemia): 17.8 µM; GI50 (MCF7 breast): 2.74 µM; TGI (MCF7 breast): 10.6 µM; GI50 (OVCAR-5 ovarian): 14.1 µM; TGI (OVCAR-5 ovarian): 48.5 µM; GI50 (HOP-62 NSCLC): 3.87 µM; TGI (HOP-62 NSCLC): 15.3 µM; GI50 (OVCAR-3 ovarian): 3.91 µM; TGI (OVCAR-3 ovarian): 24.4 µM; GI50 (T-47D breast): 2.65 µM; TGI (T-47D breast): 8.95 µM; GI50 (PC-3 prostate): 2.97 µM; TGI (PC-3 prostate): 15 µM; GI50 (DU-145 prostate): 6.74 µM; TGI (DU-145 prostate): 36.6 µM; GI50 (HCT-15 colon): 2.48 µM; TGI (HCT-15 colon): 21.2 µM; GI50 (SK-MEL-5 melanoma): 1.87 µM; TGI (SK-MEL-5 melanoma): 4.92 µM; GI50 (U251 CNS): 3.03 µM; TGI (U251 CNS): 16.2 µM; GI50 (IGROV1 ovarian): 4.75 µM; TGI (IGROV1 ovarian): 29.3 µM; GI50 (UACC-257 melanoma): 3.81 µM; TGI (UACC-257 melanoma): 14.9 µM; GI50 (NCI-H226 lung): 3.5 µM; TGI (NCI-H226 lung): 23 µM; GI50 (NCI/ADR-RES ovarian): 2.04 µM; TGI (NCI/ADR-RES ovarian): 6.67 µM; GI50 (ACHN renal): 6.58 µM; TGI (ACHN renal): 31.3 µM; GI50 (HCC-2998 colon): 7.01 µM; TGI (HCC-2998 colon): 30.4 µM; GI50 (SW-620 colon): 4.15 µM; TGI (SW-620 colon): 26.9 µM; GI50 (A498 renal): 1.83 µM; TGI (A498 renal): 9.43 µM; GI50 (HS 578T breast): 4.93 µM; TGI (HS 578T breast): 56.6 µM; GI50 (SF-268 CNS): 5.56 µM; TGI (SF-268 CNS): 34.6 µM; GI50 (SN12C renal): 4.18 µM; TGI (SN12C renal): 48.5 µM; GI50 (NCI-H460 lung): 3.22 µM; TGI (NCI-H460 lung): 13.2 µM
